Data on one compound can be found in article PMC12276035, “Novel Para‐Phenylenediamine‐Based Derivatives as Receptor Tyrosine Kinase‐like Orphan Receptor 1 (ROR1) Inhibitors: An In Vitro Preliminary Characterization” (Chemmedchem, 2025).

Series [1] is described as follows: Liver microsomal stability. It is filed as in vitro ADME, mouse. The method, then: To evaluate the metabolic stability of our hit compound and assess its drug‐likeness, we investigated the microsomal stability of 17 by incubating it with mouse liver microsomes. We monitored the loss of the compound over time under CYP‐mediated metabolic pathways (Figure 7A). The natural logarithm of the percentage remaining of the compound, calculated by comparing the concentration at each time point with the t0 sample, was plotted against time, yielding a linear regression (R ^2 = 0.98).
The liver microsomal stability assay of compound 17 was conducted as previously described.^[ [47] ^] Briefly, mouse (CD‐1) liver microsomes (Thermo Fisher Scientific, Bremen, Germany) were used, and the reaction was initiated by the addition of NADPH. The incubation was carried out 37 °C for 15, 30, 45, and 60 min in a Thermomixer comfort (Eppendorf, Hamburg, Germany). The reaction was stopped by the addition of ice‐cold methanol containing IS. Finally, the samples were centrifuged, and the supernatants were injected into the LC‐MS. […] All experiments were performed in triplicate, and results were expressed as the in vitro microsomal half‐life (t 1/2), calculated using the equation t 1/2 = 0.693/b, where b is the slope of the linear regression obtained by plotting the natural logarithm of the remaining parent compound fraction against incubation time.

Series [2] in a line: Plasma stability assay. It is filed as in vitro ADME. To be noted: mouse plasma, 120 min, 37 °C. The method, then: In addition to hepatic metabolism, drugs are also prone to degradation and modification by plasma enzymes, including hydrolases and esterases. Compounds with low plasma stability often show rapid clearance and a short half‐life. […] In this study, we assessed the metabolic stability of compound 17 by incubating it in mouse plasma for 120 min.
The plasma stability of compound 17 was evaluated. Briefly, mouse plasma is equilibrated to 37 °C and biotransformation is initiated by addition of compound solution and mixing. At each specified time point (0, 60, and 120 min), the test compound was extracted using ice‐cold methanol to halt degradation, with the IS added during the quenching phase. The concentration of the test compound was then quantified using LC‐MS. The percentage of the test compound remaining at each time point, relative to the 0 min reference, was recorded. Procaine (low stability) and procainamide (high stability) served as controls. All experiments were conducted in triplicate.

Series [3] deals with JeKo‐1 cells. Description: MTT cell viability assay, JeKo‐1. It is filed as cell-based. To be noted: Homo sapiens, cytotoxicity, treated for 72 h, read-out: EC50 ± SD JeKo‐1. The method, then:
Cytotoxicity studies, assessing the activity of the synthetized compounds, were performed only on the molecules showing the best binding profile in the SPR assay. MTT test was performed on two cell lines known for overexpressing ROR1, particularly MTT assays were conducted on JeKo‐1 (human mantle cell lymphoma) and SH‐SY5Y (neuroblastoma), exposing them to different concentrations of compounds for 72 h (Table 2 ). […] This increased effectiveness is likely due to the high expression of the target protein in leukemia and other hematologic malignancies. […] A key structural difference in 18 and 19 compared to active compounds is the absence of the trifluoromethyl group on the aromatic ring. Indeed, the removal of the trifluoromethyl group (18) or the incorporation of an electron‐donating substituent (19) alters the interaction with the ATP‐binding pocket.
The JeKo‐1 mantle cell lymphoma (MCL) cell line, derived from mantle cell lymphoma of B‐cell lineage, was obtained from ATCC and was grown in RPMI supplemented with 10% v/v fetal bovine serum, 2 mM L‐glutamine, 100 U mL^−1 penicillin, and 0.1 mg mL^−1 streptomycin.
Cell viability was established by measuring mitochondrial metabolic activity with MTT. In brief, SH‐SY5Y (20 × 10^3 cells/well) and JeKo‐1 (10 × 10^3 cells/well) were plated into 96‐well plates for 24 h, then the compounds (1.56–50 μM) were added. […], cells were replaced with a fresh medium containing 0.5 mg mL^−1 MTT.^[ [45] ^] Cells were incubated for 1–3 h at 37 °C, then the medium was discarded, and formazan blue crystals in the cells dissolved with 100 μL per well of a solution containing isopropanol/HCl 0.1 M. The absorbance was measured at 570 nm using a microplate reader (Multiskan Go, Thermo Scientific, Waltham, MA, USA). Cell viability was expressed as a percentage relative to the untreated cells cultured in medium with 0.1% DMSO and set to 100%, whereas 10% DMSO was used as positive control and set to 0% of viability. The EC50 values were calculated using GraphPad Prism 8.0 software by nonlinear regression of dose‐response inhibition.

For `O=C(NCc1ccc(-c2ccccc2)cc1)Nc1ccc(NCC2CCNCC2)cc1C(F)(F)F` [Compound 17], the degradation entry in series [1] (after 60 min with mouse microsomes) was “≈ 20%”. The half-life in series [1] (mouse (CD‐1) liver microsomes, NADPH, 37 °C) was ~3.3 h. The compound remaining intact result in series [2] is “over 85%”. Also, the EC50 in series [3] was 10.3 ± 2.86 µM.
